Reference: ChEMBL document CHEMBL1144239, “Identification of novel protein kinase CK1 delta (CK1delta) inhibitors through structure-based virtual screening” (Bioorg Med Chem Lett, 2008)

Columns and labels:
[1] = Inhibition of CK1
[2] = molecular target: Tyrosine-protein kinase Lyn (Homo sapiens, UniProt P07948); experiment: Inhibition of Lyn
[3] = molecular target: Dual specificity tyrosine-phosphorylation-regulated kinase 1A (Homo sapiens, UniProt Q13627); experiment: Inhibition of DYRK1a
[4] = molecular target: Tyrosine-protein kinase CSK (Homo sapiens, UniProt P41240); experiment: Inhibition of CSK
[5] = molecular target: Serine/threonine-protein kinase pim-1 (Homo sapiens, UniProt P11309); experiment: Inhibition of PIM1
[6] = Inhibition of PKA
[7] = molecular target: Casein kinase I isoform gamma-1 (Homo sapiens, UniProt Q9HCP0); experiment: Inhibition of CK1gamma1
[8] = Cytotoxicity against cisplatin-resistant human C13 cells after 48 hrs; type: functional, cell-based; details: C13, 48 h
[9] = Inhibition of CK2
[10] = molecular target: Homeodomain-interacting protein kinase 2 (Homo sapiens, UniProt Q9H2X6); experiment: Inhibition of HIPK2
[11] = Cytotoxicity against human ovarian carcinoma cells after 48 hrs; type: functional, cell-based; details: Ovarian carcinoma cell
[12] = molecular target: Casein kinase I isoform delta (Homo sapiens, UniProt P48730); experiment: Inhibition of CK1delta
[13] = molecular target: Tyrosine-protein kinase SYK (Homo sapiens, UniProt P43405); experiment: Inhibition of Syk
[14] = molecular target: Tyrosine-protein kinase Fgr (Homo sapiens, UniProt P09769); experiment: Inhibition of Fgr
[15] = molecular target: ALK tyrosine kinase receptor (Homo sapiens, UniProt Q9UM73); experiment: Inhibition of GST tagged ALK
[16] = molecular target: Casein kinase I isoform alpha (Homo sapiens, UniProt P48729); experiment: Inhibition of CK1alpha
Sequence of Casein kinase I isoform alpha (P48729 whole entry, canonical isoform): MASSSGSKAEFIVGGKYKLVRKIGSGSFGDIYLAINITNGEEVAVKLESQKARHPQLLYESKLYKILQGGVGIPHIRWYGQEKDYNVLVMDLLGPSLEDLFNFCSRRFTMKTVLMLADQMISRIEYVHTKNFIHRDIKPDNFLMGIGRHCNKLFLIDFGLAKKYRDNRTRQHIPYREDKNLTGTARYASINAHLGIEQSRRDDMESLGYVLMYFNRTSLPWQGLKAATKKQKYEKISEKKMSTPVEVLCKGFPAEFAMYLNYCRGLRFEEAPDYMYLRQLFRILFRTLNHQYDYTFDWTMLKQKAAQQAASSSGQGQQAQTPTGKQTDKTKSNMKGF

Sequence of Casein kinase I isoform delta (P48730 whole entry, canonical isoform): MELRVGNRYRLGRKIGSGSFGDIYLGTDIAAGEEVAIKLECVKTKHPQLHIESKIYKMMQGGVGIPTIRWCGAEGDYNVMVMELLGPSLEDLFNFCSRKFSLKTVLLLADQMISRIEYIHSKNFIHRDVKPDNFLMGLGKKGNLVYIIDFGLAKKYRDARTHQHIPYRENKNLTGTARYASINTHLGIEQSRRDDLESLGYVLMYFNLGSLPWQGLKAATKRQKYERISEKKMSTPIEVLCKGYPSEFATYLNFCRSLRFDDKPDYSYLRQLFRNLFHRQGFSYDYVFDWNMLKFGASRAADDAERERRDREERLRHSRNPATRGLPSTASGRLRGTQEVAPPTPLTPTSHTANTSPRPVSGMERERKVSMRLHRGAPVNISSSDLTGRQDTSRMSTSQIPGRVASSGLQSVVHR
Sequence of Casein kinase I isoform gamma-1 (Q9HCP0 whole entry, canonical isoform): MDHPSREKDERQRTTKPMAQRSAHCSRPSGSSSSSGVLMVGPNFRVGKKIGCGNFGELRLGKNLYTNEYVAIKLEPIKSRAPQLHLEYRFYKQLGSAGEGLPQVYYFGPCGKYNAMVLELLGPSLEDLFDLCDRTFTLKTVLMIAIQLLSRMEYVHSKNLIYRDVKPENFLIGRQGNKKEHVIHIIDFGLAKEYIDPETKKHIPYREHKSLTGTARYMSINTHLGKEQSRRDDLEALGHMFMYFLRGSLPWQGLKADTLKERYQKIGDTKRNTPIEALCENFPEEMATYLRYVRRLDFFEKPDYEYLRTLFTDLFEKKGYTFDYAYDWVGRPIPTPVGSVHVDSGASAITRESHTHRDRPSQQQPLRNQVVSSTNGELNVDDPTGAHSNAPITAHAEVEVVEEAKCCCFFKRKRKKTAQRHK
Sequence of Tyrosine-protein kinase Lyn (P07948 whole entry): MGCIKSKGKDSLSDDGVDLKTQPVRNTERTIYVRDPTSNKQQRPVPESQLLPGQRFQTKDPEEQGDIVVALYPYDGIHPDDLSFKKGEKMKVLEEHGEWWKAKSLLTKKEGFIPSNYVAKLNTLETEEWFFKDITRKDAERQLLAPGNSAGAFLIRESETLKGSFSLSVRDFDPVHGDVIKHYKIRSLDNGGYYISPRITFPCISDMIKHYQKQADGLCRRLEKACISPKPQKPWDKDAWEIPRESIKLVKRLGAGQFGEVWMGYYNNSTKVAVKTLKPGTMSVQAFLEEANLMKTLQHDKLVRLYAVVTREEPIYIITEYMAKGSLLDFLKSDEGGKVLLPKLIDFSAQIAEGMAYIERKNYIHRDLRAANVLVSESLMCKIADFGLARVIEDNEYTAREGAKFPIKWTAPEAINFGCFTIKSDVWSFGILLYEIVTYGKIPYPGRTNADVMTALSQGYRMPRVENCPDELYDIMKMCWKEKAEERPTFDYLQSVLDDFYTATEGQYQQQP
Sequence of Serine/threonine-protein kinase pim-1 (P11309 whole entry): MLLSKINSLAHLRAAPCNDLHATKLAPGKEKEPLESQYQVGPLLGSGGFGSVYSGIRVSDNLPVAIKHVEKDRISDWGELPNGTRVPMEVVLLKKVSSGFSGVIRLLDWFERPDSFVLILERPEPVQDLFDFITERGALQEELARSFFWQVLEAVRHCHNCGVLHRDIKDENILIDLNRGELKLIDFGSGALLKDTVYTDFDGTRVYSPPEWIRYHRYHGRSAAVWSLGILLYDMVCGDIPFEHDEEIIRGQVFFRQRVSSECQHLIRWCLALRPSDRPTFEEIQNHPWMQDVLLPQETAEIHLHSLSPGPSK
Sequence of ALK tyrosine kinase receptor (Q9UM73 whole entry, canonical isoform): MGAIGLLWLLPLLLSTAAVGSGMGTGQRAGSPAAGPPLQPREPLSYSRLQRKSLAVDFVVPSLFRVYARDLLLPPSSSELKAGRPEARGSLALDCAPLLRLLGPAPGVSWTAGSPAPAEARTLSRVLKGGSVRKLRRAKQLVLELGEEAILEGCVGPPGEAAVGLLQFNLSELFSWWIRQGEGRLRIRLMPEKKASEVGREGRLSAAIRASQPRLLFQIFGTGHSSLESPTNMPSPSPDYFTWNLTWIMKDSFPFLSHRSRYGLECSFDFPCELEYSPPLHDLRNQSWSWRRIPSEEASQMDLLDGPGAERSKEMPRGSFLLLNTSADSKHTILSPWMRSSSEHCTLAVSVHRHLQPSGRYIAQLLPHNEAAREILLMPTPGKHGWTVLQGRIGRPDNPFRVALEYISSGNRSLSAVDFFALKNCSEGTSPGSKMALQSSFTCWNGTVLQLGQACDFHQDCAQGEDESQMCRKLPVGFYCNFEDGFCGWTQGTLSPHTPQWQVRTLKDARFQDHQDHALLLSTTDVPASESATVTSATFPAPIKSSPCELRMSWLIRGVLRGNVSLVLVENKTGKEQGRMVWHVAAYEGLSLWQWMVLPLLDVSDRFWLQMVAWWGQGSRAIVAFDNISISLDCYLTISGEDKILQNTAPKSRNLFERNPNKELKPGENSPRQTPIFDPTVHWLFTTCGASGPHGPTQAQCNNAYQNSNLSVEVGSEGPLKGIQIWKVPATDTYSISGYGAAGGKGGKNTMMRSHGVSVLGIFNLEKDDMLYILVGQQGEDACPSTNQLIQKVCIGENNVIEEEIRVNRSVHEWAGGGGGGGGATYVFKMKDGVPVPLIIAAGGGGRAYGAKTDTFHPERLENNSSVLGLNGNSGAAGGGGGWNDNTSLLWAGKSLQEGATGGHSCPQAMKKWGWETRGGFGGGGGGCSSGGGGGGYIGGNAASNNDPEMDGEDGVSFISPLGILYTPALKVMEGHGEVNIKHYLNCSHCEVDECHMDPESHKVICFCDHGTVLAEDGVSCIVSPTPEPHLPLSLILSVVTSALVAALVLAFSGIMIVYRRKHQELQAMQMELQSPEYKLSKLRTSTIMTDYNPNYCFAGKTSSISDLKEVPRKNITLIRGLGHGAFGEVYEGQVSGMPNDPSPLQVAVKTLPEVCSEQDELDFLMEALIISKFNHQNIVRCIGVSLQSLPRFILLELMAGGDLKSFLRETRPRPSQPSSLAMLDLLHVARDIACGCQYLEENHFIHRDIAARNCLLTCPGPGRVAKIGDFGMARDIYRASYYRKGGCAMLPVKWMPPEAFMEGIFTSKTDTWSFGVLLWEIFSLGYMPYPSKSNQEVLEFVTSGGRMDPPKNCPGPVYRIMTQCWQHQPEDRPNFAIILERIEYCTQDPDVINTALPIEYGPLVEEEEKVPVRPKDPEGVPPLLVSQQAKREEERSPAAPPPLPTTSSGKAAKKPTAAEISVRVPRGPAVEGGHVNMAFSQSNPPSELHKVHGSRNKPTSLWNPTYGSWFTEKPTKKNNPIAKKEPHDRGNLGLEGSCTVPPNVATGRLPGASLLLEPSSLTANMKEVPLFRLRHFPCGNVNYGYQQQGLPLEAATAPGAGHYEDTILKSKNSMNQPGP
Sequence of Tyrosine-protein kinase Fgr (P09769 whole entry): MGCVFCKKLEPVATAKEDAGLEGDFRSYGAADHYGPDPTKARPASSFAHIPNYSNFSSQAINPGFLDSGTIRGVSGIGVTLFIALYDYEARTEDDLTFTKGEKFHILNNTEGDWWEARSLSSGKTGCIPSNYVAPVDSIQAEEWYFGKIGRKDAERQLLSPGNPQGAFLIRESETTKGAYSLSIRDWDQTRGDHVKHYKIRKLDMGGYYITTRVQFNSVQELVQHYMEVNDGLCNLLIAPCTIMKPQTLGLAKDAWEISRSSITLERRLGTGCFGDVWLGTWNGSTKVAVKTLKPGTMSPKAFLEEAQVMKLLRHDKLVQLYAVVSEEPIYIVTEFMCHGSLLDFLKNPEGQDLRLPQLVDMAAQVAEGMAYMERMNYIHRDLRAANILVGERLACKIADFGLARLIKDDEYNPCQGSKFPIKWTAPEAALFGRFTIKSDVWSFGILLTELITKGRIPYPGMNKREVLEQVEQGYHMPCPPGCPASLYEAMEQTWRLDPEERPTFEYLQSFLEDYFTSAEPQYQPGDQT

| Compound | IC50 [1] [µM] | IC50 [7] [µM] | IC50 [8] [µM] | IC50 [11] [µM] | IC50 [12] [µM] | IC50 [16] [µM] | other results |
| --- | --- | --- | --- | --- | --- | --- | --- |
| Nc1ccc(N)c2c1C(=O)c1ccccc1C2=O |  | 34 | 87.9 | 14.4 | 0.33 | 4 | IC50 [2]: > 40 µM; IC50 [3]: 3.6 µM; IC50 [4]: > 40 µM; IC50 [5]: 24.7 µM; IC50 [6]: > 40 µM; IC50 [9]: 18 µM; IC50 [10]: 3.3 µM; IC50 [13]: > 40 µM; IC50 [14]: 24 µM; IC50 [15]: > 40 µM |
| Nc1ccc(O)c2c1C(=O)c1ccccc1C2=O |  | 26.2 | 8 | 122 | 0.66 | 4 |  |
| COc1cc(OC)c(C=C2C(=O)Nc3ccccc32)c(OC)c1 [IC261] | 1 | > 40 |  |  | 2.57 | 1.24 |  |
| O=C1c2ccccc2C(=O)c2c(O)ccc(O)c21 [QUINIZARIN] |  | > 40 |  |  | > 40 | > 40 |  |

More lines, main results first:

| IC50 [1] [µM] | Compound | IC50 [7] [µM] | IC50 [8] [µM] | IC50 [11] [µM] | IC50 [12] [µM] | IC50 [16] [µM] | other results |
| --- | --- | --- | --- | --- | --- | --- | --- |
| 0.3 | NC(=O)c1ccc(-c2nc(-c3ccc4c(c3)OCCO4)c(-c3ccccn3)[nH]2)cc1 |  |  |  |  |  |  |
| 6 | NCCNS(=O)(=O)c1ccc(Cl)c2ccncc12 |  |  |  |  |  |  |
